Measurements as given in patent US8039076B2, “Dye and recording media utilizing the same” (Industrial Technology Research Institute, priority 2006, dated 2011).

Assay: Optical measurement of the dyes by UV-visible spectrophotometer
Type: physicochemical
Parameters: Max absorption wavelength in MeOH solution: unit: nm
Conditions: for absorption coefficient (ε) (* 10^4) / Max absorption wavelength in MeOH solution: MeOH solution
Description: Measured by UV-visible spectrophotometer, the optical properties (e.g. maximum absorption wavelength in solution) of the dyes of the preferred embodiments are tabulated in Table 1. In Table 1, dye I-2 has a maximum absorption wavelength of 489 nm in methanol solution, and dye V-2 has a maximum absorption wavelength of 493 nm in methanol solution, respectively.

[1] = at second printed absorption maximum

| Compound | absorption coefficient (ε) (* 10^4) (at first absorption maximum) | Max absorption wavelength in MeOH solution (first band) | absorption coefficient (ε) (* 10^4) [1] | Max absorption wavelength in MeOH solution (second printed band) | maximum absorption wavelength in methanol solution [nm] |
| --- | --- | --- | --- | --- | --- |
| CC1=[N+](Cc2ccc(C(=O)OCC(F)(F)C(F)F)cc2)c2ccccc2C1(C)C [I-i] | 12.2 * 10^4 | 464 | – | – | – |
| c1ccncc1 [I-a] | 4.98 * 10^4 | 460 | – | – | – |
| CC1=[N+](Cc2ccc(C(=O)OCC(F)(F)C(F)F)cc2)c2ccccc2C1(C)C [I-f] | 8.08 * 10^4 | 448 | – | – | – |
| CCN(CC)CC [V-d] | 8.45 * 10^4 | 463 | – | – | – |
| CCCC[N+](CCCC)(CCCC)CCCC [V-a] | 6.41 * 10^4 | 461 | – | – | – |
| CCCCN(CCCC)c1ccc([N+](=C2C=CC(=[N+](c3ccc(N(CCCC)CCCC)cc3)c3ccc(N(CCCC)CCCC)cc3)C=C2)c2ccc(N(CCCC)CCCC)cc2)cc1 [I-d] | 6.58 * 10^4 | 460 | 5.11 * 10^4 | 1067 | – |
| Cc1sc2ccccc2[n+]1C [I-m] | 10.7 * 10^4 | 472 | – | – | – |
| CCCCN(CCCC)c1ccc([N+](=C2C=CC(=[N+](c3ccc(N(CCCC)CCCC)cc3)c3ccc(N(CCCC)CCCC)cc3)C=C2)c2ccc(N(CCCC)CCCC)cc2)cc1 [V-c] | 6.8 * 10^4 | 461 | 3.8 * 10^4 | 1067 | – |
| CC1=[N+](Cc2ccc(C(=O)OCC(F)(F)C(F)F)cc2)c2ccccc2C1(C)C [I-g] | 12.99 * 10^4 | 463 | – | – | – |
| CCCC[N+](CCCC)(CCCC)CCCC [I-c] | 6.22 * 10^4 | 460 | – | – | – |

Second part, the compound after the results:

| absorption coefficient (ε) (* 10^4) (at first absorption maximum) | Max absorption wavelength in MeOH solution (first band) | absorption coefficient (ε) (* 10^4) [1] | Max absorption wavelength in MeOH solution (second printed band) | maximum absorption wavelength in methanol solution [nm] | Compound |
| --- | --- | --- | --- | --- | --- |
| 11.5 * 10^4 | 462 | – | – | – | CC1=[N+](C)c2ccccc2C1(C)C [I-n] |
| 9.72 * 10^4 | 492 | – | – | – | CC1=[N+](Cc2ccc(C(=O)OCC(C)(C)C(C)C)cc2)c2ccccc2C1(C)C [V-b] |
| 18.5 * 10^4 | 462 | – | – | – | CC1=[N+](C)c2ccccc2C1(C)C [I-h] |
| 11.8 * 10^4 | 460 | – | – | – | CCOC(=O)CCCC[N+]1=C(C)C(C)(C)c2ccccc21 [I-k] |
| 12.1 * 10^4 | 459 | – | – | – | CCCC[N+]1=C(C)C(C)(C)c2ccccc21 [I-j] |
| 10.35 * 10^4 | 490 | – | – | – | CC1=[N+](C)c2ccccc2C1(C)C [V-e] |
| 8.4 * 10^4 | 495 | – | – | – | CC1=[N+](Cc2ccc(C(=O)OCC(F)(F)C(C)F)cc2)c2ccccc2C1(C)C (stereo not drawn) [I-b] |
| 12.5 * 10^4 | 461 | – | – | – | COS(=O)(=O)CCCC[N+]1=C(C)C(C)(C)c2ccccc21 [I-l] |
| 19.1 * 10^4 | 493 | – | – | 493 | CC1=[N+](C)c2ccccc2C1(C)C [Dye V-2] |
| 7.58 * 10^4 | 471 | – | – | – | CC1=[N+](Cc2ccc(C(=O)OCC(F)(F)C(F)F)cc2)c2ccccc2C1(C)C [I-e] |
| 15.4 * 10^4 | 489 | – | – | 489 | CC1=[N+](C)c2ccccc2C1(C)C [Dye I-2] |
